Assays:
[1] = test system: Nuclear Factor Kappa B subunit 1 (NFKB1); test: Innate immune response gene expression in HEKa, real time PCR array; format: cell-based, human; conditions: 50 μg/ml, 24 h
Method: HEKa cells (Life Technologies) are seeded at 6.0×10^5 cells/well in 6-well plates and incubated in culture medium Epillfe™ with defined Growth Supplement (EDGS, Life Technologies), at 37° C. in a water-saturated atmosphere of 95% air and 5% CO2. After 24 hours of incubation under these conditions, medium is removed and cells are incubated with 50 μg/ml (w/v) of a peptide of the invention (see Table 16) in fresh culture medium keeping two wells where HEKa cells are incubated with medium only (basal conditions) at 37° C. and 5% CO2.
After 24 h of incubation, the cells are lysed directly in the wells following the protocol described on the RNeasy™ Mini kit (Qiagen) according to the manufacturer's protocol. The lysed cells are homogenized and the RNases are inactivated. The genomic DNA is removed from the samples by using gDNA Eliminator spin columns (Qiagen). Then the samples are passed through special RNA binding columns (Qiagen) and, after several microcentrifugation washes to eliminate contaminants and impurities, the purified RNA is eluted with 50 μl of ultrapure water. Quantification and analysis of purity of RNA samples are performed after RNA elution with a biophotometer (Eppendorf). 1 μg of high-quality RNA is retrotranscribed with iScript™ advanced (BioRad) in a final volume of 20 μl·Complete reaction mix is incubated in a thermal cycler (Eppendorf) at 42° C. for 30 minutes, and the reactions are stopped at 85° C. for 5 minutes. Complementary DNA is amplified by qPCR in a real-time PCR thermocycler (BioRad) using SYBR®Green supermix (BioRad) and a customized plate for use with SYBR®Green (BioRad). SYBR®Green binds to double-stranded DNA molecules and emits fluorescence which is quantified and is proportional to the amount of the product in the PCR reaction. Cycling conditions in BioRad CFX96™ instrument are 95° C. for 3 minutes, followed by 40 cycles of denaturing at 95° C. for 5 seconds, annealing and elongation at 60° C. for 30 seconds. GAPDH (Glyceraldehyde 3-phosphate dehydrogenase), TBP (TATA box binding protein) and HRPT1 (hypoxanthine phosphoribosyltransferase 1) are used as endogenous controls. Fold change relative to the expression of the sample genes and reference genes is calculated using normalized expression (ΔΔ(Ct)) method with default threshold values using CFX Manager Software (BioRad).
Genes analyzed are Chemokine (C-C motif) Ligand 5 (CCL5), Myeloid Differentiation primary response gene 88 (MyD88), Nuclear Factor Kappa B subunit 1 (NFKB1) and interferon Regulatory Factor 3 (IRF3).

[2] = test system: Staphylococcus epidermidis; test: Adherence of Staphylococcus epidermidis in keratinocytes (HaCaT) in competition with S. aureus bioparticles; format: cell-based; conditions: 50 μg/ml, 24 h, basal = 0
Method: After that treatment, cells are washed with phosphate-buffered saline (PBS, Sigma) and are then incubated with a solution of Staphylococcus epidermidis (ATCC®12228™, Culture Collections) treated with green-fluorescence calcein AM (Life technologic) and Alexa Fluor 594™ Bioparticles Staphylococcus aureus (ThermoFisher) in PBS for 30 minutes at 37° C. and protected from light. At the end of the incubation period, cells are washed with PBS and fixed in 4% (v/v) paraformaldehyde (PFA, Sigma) for 30 minutes. After rinsing with PBS, the nuclei are stained with Hoechst 33342, trihydrochloride trihydrate (ThermoFisher) in PBS for 10 minutes before analysis.
Cellular imaging is performed by fluorescence microscopy using the Operetta® High Content Imaging System (PerkinElmer). From each fluorescence image, Staphylococcus epidermidis is quantified as a number of spots and normalized against the number of keratinocyte nuclei and the total bacteria number (understood as the addition of detected S. epidermidis spots and S. aureus bioparticles). Each value obtained is normalized respect to basal conditions (non-treated keratinocytes). An image is taken in three different fields per well. 12 representative images from each condition are analyzed with Harmony software (PerkinElmer).
The normalized percentage of Staphylococcus epidermidis respect to basal conditions in treated keratinocytes is represented in Table 17.

[3] = test system: Reconstructed Human Epidermis (RHE); test: Lipidomic profile (UPLC-MS) of in vitro epidermal model; format: cell-based; conditions: 50 μg/ml, 24 hours, vs basal conditions
Method: The SkinEthic human tissue models (EpiSkin™) are removed from their agarose-nutrient solution in the multiwell plate immediately after arrival and are placed in a 6-well plate in which each well has previously been filled with SkinEthic Growth Medium (EpiSkin™). After overnight incubation at 37° C., 5% CO2, Reconstructed Human Epidermis (RHE) are treated with 50 μg/ml of peptides Ac-Glu-Glu-Met-Gln-Arg-Arg-NH2 (PEP-1), Ac-Glu-Glu-Met-Gln-Arg-Arg-Ala-NH2 (PEP-2) or Ac-Glu-Glu-Met-Gln-Arg-Arg-Ala-Asp-NH2 (PEP-3) or medium (basal conditions) for 24 hours at 37° C. and 5% CO2. After the 24 hours treatment, RHE are frozen and stored at −20° C. Each treatment is applied to five RHE per condition.
Epidermal membrane model samples are thawed and removed from the inserts using a scalpel and transferred to homogenization tubes. Samples are mixed with sodium chloride (50 mM) and chloroform/methanol (2/1) (v:v) and homogenized. The extraction solvent is spiked with metabolites not detected in unspiked human serum extracts. After homogenizing the samples, extracts are incubated for 1 hour at −20° C. and centrifuged at 18,000×g for 15 minutes. The organic phase is then collected and dried under vacuum. Dried extracts are finally reconstituted in acetonitrile/isopropanol (1/1) (v:v), centrifuged at 18,000×g for 5 minutes and transferred to vials for UPLCs-MS analysis.
All data are processed using the TargetLynx™ application manager for MassLynx™ 4.1 software (Waters Corp., Milford, USA). A set of predefined retention time, mass-to-charge ratio pairs, Rt-m/z, corresponding to metabolites included in the analysis are fed into the program. Associated extracted ion chromatograms (mass tolerance window=0.05 Da) are then peak-detected and noise-reduced in both the LC and MS domains such that only true metabolite related features are processed by the software. A list of chromatographic peak areas is then generated for each sample injection and value respect to basal conditions is calculated.
Average of five values obtained for each peptide in relation to those obtained for basal conditions (without peptide in the medium) are shown in Table 11.

Row | Substance | NFKB1 fold induction respect to basal conditions [1] | S. epidermidis (%), normalized percentage respect to basal conditions [2] | other results
1 | Ac-EELQRRAD-NH2 [PEP-10, Ac-Glu-Glu-Leu-Gln-Arg-Arg-Ala-Asp-NH2] | 2.46 | 11.54% | 
2 | Ac-EEMDRRA-NH2 [PEP-42, Ac-Glu-Glu-Met-Asp-Arg-Arg-Ala-NH2] | 2.70 | 12.36% | 
3 | Ac-EEMDRRAD-NH2 [PEP-13, Ac-Glu-Glu-Met-Asp-Arg-Arg-Ala-Asp-NH2] | 2.60 | 21.79% | 
4 | Ac-EEMERR-NH2 [PEP-47, Ac-Glu-Glu-Met-Glu-Arg-Arg-NH2] | 2.12 | 2.91% | 
5 | Ac-EEMERRA-NH2 [PEP-39, Ac-Glu-Glu-Met-Glu-Arg-Arg-Ala-NH2] | 2.62 | 71.97% | 
6 | Ac-EEMERRAD-NH2 [PEP-11, Ac-Glu-Glu-Met-Glu-Arg-Arg-Ala-Asp-NH2] | 2.63 | 4.24% | 
7 | Ac-EEMERRAD-OH [PEP-31, Ac-Glu-Glu-Met-Glu-Arg-Arg-Ala-Asp-OH] | 2.24 | 29.41% | 
8 | Ac-EEMNRR-NH2 [PEP-48, Ac-Glu-Glu-Met-Asn-Arg-Arg-NH2] | 1.48 | 18.02% | 
9 | Ac-EEMNRRAD-NH2 [PEP-12, Ac-Glu-Glu-Met-Asn-Arg-Arg-Ala-Asp-NH2] | 2.58 | 14.00% | 
10 | Ac-EEMQKK-NH2 [PEP-54, Ac-Glu-Glu-Met-Gln-Lys-Lys-NH2] | 2.15 | 10.91% | 
11 | Ac-EEMQKR-NH2 [PEP-46, Ac-Glu-Glu-Met-Gln-Lys-Arg-NH2] | 2.03 | 3.97% | 
12 | Ac-EEMQRHAD-NH2 [PEP-20, Ac-Glu-Glu-Met-Gln-Arg-His-Ala-Asp-NH2] | 2.71 | 16.66% | 
13 | Ac-EEMQRK-NH2 [PEP-45, Ac-Glu-Glu-Met-Gln-Arg-Lys-NH2] | 2.21 | 5.48% | 
14 | Ac-EEMQRK-OH [PEP-62, Ac-Glu-Glu-Met-Gln-Arg-Lys-OH] | 1.40 | 6.78% | 
15 | Ac-EEMQRR-NH2 [PEP-1, Ac-Glu-Glu-Met-Gln-Arg-Arg-NH2] | 2.59 | 13.63. % | Cer_AP48 N-(alpha-hydroxyacyl) phytosphingosines [3]: 1.21 fold change; Cer_NP48 N-acyl phytosphingosines [3]: 1.21 fold change; Cer_NP49 N-acyl phytosphingosines [3]: 1.17 fold change; Cer_NP50 N-acyl phytosphingosines [3]: 1.18 fold change; Cer_NP51 N-acyl phytosphingosines [3]: 1.44 fold change; Cer_NS50 N-acyl sphingosines [3]: 1.20 fold change; Cer_NS51 N-acyl sphingosines [3]: 1.14 fold change; Cer_NS52 N-acyl sphingosines [3]: 1.35 fold change; Cer_NdS47 N-acyl dihydrosphingosines [3]: 1.14 fold change; Cer_NdS48 N-acyl dihydrosphingosines [3]: 1.21 fold change; Cer_NdS49 N-acyl dihydrosphingosines [3]: 1.38 fold change; Cer_NdS50 N-acyl dihydrosphingosines [3]: 1.42 fold change
16 | Ac-EEMQRRAD-OH [PEP-4, Ac-Glu-Glu-Met-Gln-Arg-Arg-Ala-Asp-OH] | 2.55 | 25.36% | 

Row | Substance | NFKB1 fold induction respect to basal conditions [1] | S. epidermidis (%), normalized percentage respect to basal conditions [2] | other results
17 | Ac-EEMQRRAE-NH2 [PEP-17, Ac-Glu-Glu-Met-Gln-Arg-Arg-Ala-Glu-NH2] | 2.32 | 11.33% | 
18 | Ac-EEMQRRAN-NH2 [PEP-18, Ac-Glu-Glu-Met-Gln-Arg-Arg-Ala-Asn-NH2] | 2.69 | 26.35% | 
19 | Ac-EEMQRRAQ-NH2 [PEP-19, Ac-Glu-Glu-Met-Gln-Arg-Arg-Ala-Gln-NH2] | 2.73 | 81.69% | 
20 | Ac-EEMQRRG-NH2 [PEP-38, Ac-Glu-Glu-Met-Gln-Arg-Arg-Gly-NH2] | 2.40 | 49.00% | 
21 | Ac-EEMQRRGD-NH2 [PEP-16, Ac-Glu-Glu-Met-Gln-Arg-Arg-Gly-Asp-NH2] | 2.47 | 51.11% | 
22 | Ac-EEMQRRKD-NH2 [PEP-24, Ac-Glu-Glu-Met-Gln-Arg-Arg-Lys-Asp-NH2] | 2.46 | 10.41% | 
23 | Ac-EEMQRRPD-NH2 [PEP-22, Ac-Glu-Glu-Met-Gln-Arg-Arg-Pro-Asp-NH2] | 2.69 | 81.90% | 
24 | Ac-EEMQRRS-NH2 [PEP-37, Ac-Glu-Glu-Met-Gln-Arg-Arg-Ser-NH2] | 2.88 | 7.49% | 
25 | Ac-EEMQRRSD-NH2 [PEP-15, Ac-Glu-Glu-Met-Gln-Arg-Arg-Ser-Asp-NH2] | 2.57 | 15.10% | 
26 | Ac-EEMQRRT-NH2 [PEP-41, Ac-Glu-Glu-Met-Gln-Arg-Arg-Thr-NH2] | 2.71 | 35.69% | 
27 | Ac-EEMQRRTD-NH2 [PEP-21, Ac-Glu-Glu-Met-Gln-Arg-Arg-Thr-Asp-NH2] | 2.39 | 16.21% | 
28 | Ac-NEMQRRA-NH2 [PEP-43, Ac-Asn-Glu-Met-Gln-Arg-Arg-Ala-NH2] | 2.56 | 30.17% | 
29 | Ac-QEMQRRAD-NH2 [PEP-9, Ac-Gln-Glu-Met-Gln-Arg-Arg-Ala-Asp-NH2] | 2.66 | 21.36% | 
30 | Ac-QEMQRRAD-OH [PEP-32, Ac-Gln-Glu-Met-Gln-Arg-Arg-Ala-Asp-OH] | 2.56 | 13.89% | 
31 | H-EEMQRR-NH2 [PEP-56, H-Glu-Glu-Met-Gln-Arg-Arg-NH2] | 1.90 | 15.75% | 
32 | H-EEMQRRAE-NH2 [PEP-26, H-Glu-Glu-Met-Gln-Arg-Arg-Ala-Glu-NH2] | 2.55 | 18.10% | 
